Where “and” joins values, the source holds several entries; their conditions need not be identical. Identical values can stand only once.
Columns and labels:
human 5-HT3A receptors = target: T1, human 5-HT3A receptors (Homo sapiens, UniProt P46098); assay: Two-electrode voltage clamp of 5-HT-induced currents in Xenopus oocytes, incl. co-application; type: cell-based; conditions: for use-dependence of inhibition: 3 μM 5-HT applied at 1 min intervals in continued presence of antagonist; for ratio of current amplitudes at +40 mV relative to −40 mV (voltage-dependence): compared with absence of antagonist, Fig. 2E; for Hill slope: concentration-inhibition curve, 1.7 μM 5-HT; for potency at 5-HT3A relative to GABA and glycine receptors: less potent than at GABA and glycine receptors, ref Huang et al., 2004, Hawthorne et al., 2006
T1 construct: expressed in transfected cells; host or cells: Xenopus laevis oocytes (cRNA from pGEMHE)
T1 sequence (P46098 24-478): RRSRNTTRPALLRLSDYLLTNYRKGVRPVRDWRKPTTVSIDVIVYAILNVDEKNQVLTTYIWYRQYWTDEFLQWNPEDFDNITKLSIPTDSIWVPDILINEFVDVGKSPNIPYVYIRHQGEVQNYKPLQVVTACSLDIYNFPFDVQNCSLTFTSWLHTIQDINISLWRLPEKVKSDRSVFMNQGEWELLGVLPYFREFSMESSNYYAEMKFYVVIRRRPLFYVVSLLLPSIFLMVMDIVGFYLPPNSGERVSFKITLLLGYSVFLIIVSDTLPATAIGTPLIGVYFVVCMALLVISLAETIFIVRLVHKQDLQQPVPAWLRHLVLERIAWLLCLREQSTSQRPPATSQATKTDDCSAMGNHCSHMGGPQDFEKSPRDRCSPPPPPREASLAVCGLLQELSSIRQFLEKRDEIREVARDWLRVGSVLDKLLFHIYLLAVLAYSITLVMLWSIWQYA
Experimental: (§1) Stage V and VI oocytes were injected with 50 nl of ∼300 ng μl^−1 cRNA, and currents were recorded 1–4 days post-injection. A ratio of 1:3 (A:B) was used for the expression of heteromeric 5-HT3 receptors.
(§2) Xenopus laevis oocyte positive females were purchased from NASCO (Fort Atkinson, Wisconsin, USA) and maintained according to standard methods.
(§3) Currents were filtered at a frequency of 1 kHz. Micro-electrodes were fabricated from borosilicate glass (GC120TF-10, Harvard Apparatus, Edenbridge, Kent, UK) using a two stage horizontal pull (P-87, Sutter Instrument Company, California, USA) and filled with 3 M KCl. […] Oocytes were perfused with saline at a rate of 15 ml min^−1. Drug application was via a simple gravity fed system calibrated to run at the same rate. Extracellular saline contained (mM), 96 NaCl, 2 KCl, 1 MgCl2 and 5 mM HEPES; adjusted to pH 7.4 with NaOH.
(§4) Analysis and curve fitting was performed using Prism V3.02 (GraphPad Software, San Diego, California, USA, www.graphpad.com). Concentration-response data for each oocyte was normalised to the maximum current for that oocyte. For inhibition curves, antagonists were routinely co-applied in the presence of agonist. For PXN, oocytes were also pre-treated with the compound for 20 s. A 2 min wash was used between drug applications. The mean and S.E.M. for a series of oocytes was plotted against agonist or antagonist concentration and iteratively fitted (GraphPad Prism v3.02) to the following Hill equation:(1) IA=Imin+Imax−Imin/1+10^nH(logA50−logA) where A is the concentration of ligand present; IA is the current in the presence of ligand concentration A; Imin is the current when A = 0; Imax is the current when A = ∞ , A50 is the concentration of A which evokes a current equal to (Imax + Imin)/2; and nH is the Hill coefficient. Results are presented as mean ± S.E.M.. Statistical analysis was performed using ANOVA in conjunction with a Dunnett’s post-hoc test.
97) • Scenario 1: Where compounds share a binding site it was assumed that the extent of binding would be determined by a competitive interaction between the compounds such that the proportion of binding sites occupied (Pocc) in the presence of two competing compounds is given by the following expression: (2) Pocc=AKA+BKB/1+AKA+BKB where A and B are the concentrations of two ligands and KA and KB are their affinity constants respectively.
In each individual experiment, for each combination of inhibitors, data values were obtained for IA, IB and IAB. From IA and IB predicted values of IAB1 and IAB2 were also derived. A two-way ANOVA was performed on values of IAB, IAB1 and IAB2 in which the distinction between IAB, IAB1 and IAB2 was treated as a fixed factor and the variation in levels of inhibition between experiments was treated as a random factor. Where the ANOVA indicated a significant difference (P < 0.05) between IAB, IAB1 and IAB2 a post-hoc analysis was carried out using the Waller–Duncan method to identify homogenous subsets with a significance level of 0.05 and a Type I /Type II error ratio if 100.
Our models were based on the following assumptions: 1. that the channel blocking compounds only effect the response that is seen when the channel is open. […] In the case of condition 5 it is possible that the binding of one compound may prevent access of another to its own site. However, in practice this will not influence the analysis since the functional consequence of the binding of both compounds compared to one will be the same, namely complete channel blockade.

human 5-HT3AB receptors = target: T2, human 5-HT3AB receptors (Homo sapiens, UniProt O95264+P46098); assay: Two-electrode voltage clamp of 5-HT-induced currents in Xenopus oocytes; type: cell-based; conditions: for IC50 at heteromers (5-HT3AB) relative to 5-HT3A: 5-HT3AB versus 5-HT3A; for IC50: oocytes; for Hill slope: concentration-inhibition curve, 28 μM 5-HT
T2 construct: expressed in transfected cells; host or cells: Xenopus laevis oocytes (cRNA from pGEMHE)
T2 sequence (P46098 24-478): T1 sequence (P46098 24-478)
T2 sequence (O95264 22-441): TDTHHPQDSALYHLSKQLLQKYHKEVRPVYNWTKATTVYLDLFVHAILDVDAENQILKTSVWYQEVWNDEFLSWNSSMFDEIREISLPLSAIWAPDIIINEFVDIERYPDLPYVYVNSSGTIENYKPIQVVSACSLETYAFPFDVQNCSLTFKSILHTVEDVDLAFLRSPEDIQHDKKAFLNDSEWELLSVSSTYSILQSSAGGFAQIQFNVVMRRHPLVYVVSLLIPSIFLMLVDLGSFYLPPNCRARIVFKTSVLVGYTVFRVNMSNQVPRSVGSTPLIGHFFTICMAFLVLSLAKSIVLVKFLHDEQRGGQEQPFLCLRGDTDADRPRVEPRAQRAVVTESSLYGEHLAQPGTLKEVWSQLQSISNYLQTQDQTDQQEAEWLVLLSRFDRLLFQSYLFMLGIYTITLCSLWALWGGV
Experimental: as §1, §2, §3, §4

[1] = IC50, inhibition of 5-HT EC50 response (28 μM 5-HT)
[2] = pIC50, inhibition of 5-HT EC50 response (28 μM 5-HT)
[3] = GB 300 μM, use-dependency experiment, Fig. 3A

Compound	IC50 (human 5-HT3A receptors)	use-dependence of inhibition (human 5-HT3A receptors; GB 300 μM)	current on washout (human 5-HT3A receptors; 6 mM)	ratio of current amplitudes at +40 mV relative to −40 mV (voltage-dependence) (human 5-HT3A receptors)	Hill slope (human 5-HT3A receptors)	potency at 5-HT3A relative to GABA and glycine receptors (human 5-HT3A receptors)	IC50 at heteromers (5-HT3AB) relative to 5-HT3A (human 5-HT3AB receptors)	IC50 (human 5-HT3AB receptors; [1])	Hill slope (human 5-HT3AB receptors)	IC50 (human 5-HT3AB receptors; [2])	Level of inhibition (1 − (I/Imax)) PXN (human 5-HT3A receptors; PXN 5 μM applied alone)	effect on 5-HT concentration-response curves (human 5-HT3A receptors; PXN between 1–50 × IC50)	inhibition at 5 µM (human 5-HT3A receptors; read-out: Level of inhibition (1 − (I/Imax)) PXN, PXN 5 μM applied alone)	Level of inhibition (1 − (I/Imax)) GB (human 5-HT3A receptors; GB 11 μM applied alone)	percentage inhibition measured at peak (human 5-HT3A receptors; [3])	percentage inhibition measured during the first application (human 5-HT3A receptors; [3])	first 5-HT response as % of the second 5-HT response (recovery) (human 5-HT3A receptors; after 0.3 mM GB)
CC(C)(C)[C@]1(O)CC2OC(=O)CC23C(=O)OC2OC(=O)[C@H](O)C231 (stereo partly shown) [BB, bilobalide]	470 µM	remained stable	transient rebound current was observed	unaltered	1.48 ± 0.16	~100 fold	~6 fold	3200 µM	0.75 ± 0.13	3160 µM	–	–	–	–	–	–	–
C=C(C)[C@@H]1[C@H]2OC(=O)[C@@H]1[C@]1(O)C[C@H]3O[C@]34C(=O)O[C@H]2[C@]14C [PXN, picrotoxinin]	10.7 µM	remained stable	–	unaltered	0.68 ± 0.12	–	~6 fold	62 µM	0.68 ± 0.10	63.1 µM	0.35 ± 0.03	rightwards shifts and a reduction in the maximal current	48 ± 4%	–	–	–	–
ginkgolide B [GB]	–	use-dependent	–	unaltered	1.10 ± 0.13	~100 fold	~6 fold	–	0.52 ± 0.14	–	–	–	–	0.25 ± 0.01 and 0.26 ± 0.05	31 ± 3.1%	38 ± 0.8%	91 ± 2%

Source: article PMC3070799 (Neuropharmacology, 2011)
